How the values were obtained:
[1] = Size exclusion chromatography, self-assembly in solution; type: physicochemical; conditions: Superdex200 Increase 10/300
Protocol: Size exclusion chromatography: Size exclusion chromatography was done using an Äkta purifier with a Superdex200 Increase 10/300 column, where 500 μL of […] or […] at the indicated concentration was injected onto the column. Absorbance profile was measured at 280 nm and plotted against elution volume using Graph Pad Prism 8.3.

[2] = Small angle X-ray scattering, self-assembly in solution; type: physicochemical
Protocol: Concentration series of […] ranging from 0.18 mg/ml to 9.37 mg/mL was prepared in buffer containing 50 mM Tris (pH 7.4), 125 mM NaCl. Samples were measured at the P12 SAXS Beamline, […], Hamburg, Germany. Preliminary data reduction including radial averaging and conversion of the data into absolute scaled scattering intensity, I(q), as a function of the scattering vector q, where q=4π sin(θ)/λ ([…]=half scattering angle) were done using the standard procedures at the beamline. The modelling of the SAXS data was performed in two ways, firstly using the pair distance distribution function and subsequently using a molecular constrained core-shell model for polydisperse spheres. In brief, it was assumed that the peptide aggregated into polydisperse spherical micelles. Here, the hydrophobic tails form the core and these are surrounded by the hydrophilic part (the shell) in a spherical micelle. […] This was calculated by counting the number of electrons in the molecular structure and multiplying by the scattering length of the electron. For the scattering length density calculations, it was assumed that the molecular volume of the C13 alkyl chain was 377 Å3 as estimated from Tanfords empirical formula (V=27.4+26.9nC) where nC denote the number of carbons. i.e. 13 in this case. The hydrophilic headgroup was as a first estimate assumed to have a mass density corresponding to that of a soluble protein (i.e. 1.35 g/cm^3), this yielded a molecular volume of 2078 Å3. […] Excess scattering length densities were then calculated in relation to water (9.4e101/cm^2). Using this molecular restrained model, the volumes of the core and of the shell were coupled internally through the fitted aggregation number, Nagg. The polydispersity was described by a Gauss function of Nagg. The Gauss was truncated at ±3sigma. The model module “[…]” from the […] software was used for the fitting. As usual a small surface roughness and a small constant background was also necessary for the model to converge. Scattering data was merged; buffer subtracted and binned using WillItRebin with a binning factor of 1.02. The pair distance distribution functions (pddf) were fitted using bayesapp (http://www.bayesapp.org/) in the interval [0.0122-0.4] Å^-1, fitting parameters are reported in the data collection table below.

[3] = test system: spontaneous inflammatory pain (CFA model); experiment: Single exposure place preference (sePP), spontaneous pain; type: in vivo, mice
Protocol: Inflammatory pain (CFA model): Animals were habituated to the experimental room for a minimum of 60 min before initiation of the experiment. Mechanical pain threshold of both hind paws was determined by von Frey measurements. Injury was induced on the right hind paw, whereas the contralateral left hind paw was used as internal control of the animal. […] In the current experiment filaments in ascending order were applied to the frontocentral plantar surface of the hind paws. […] Each von Frey filament was applied five times with adequate resting periods between each application and number of withdrawals recorded. The withdrawal threshold was determined as the von Frey filament eliciting at least 3 positive trials out of the 5 applications in two consecutive filaments. A positive trial was defined as sudden paw withdrawal, flinching and/or paw licking induced by the filament. The inflammatory pain was induced by injection of 50 μL undiluted Complete Freund's Adjuvant (CFA) ([…], Sigma) unilaterally into the intraplantar surface of the right hind paw. All intraplantar injections were performed with an insulin needle (0.3 mL BD Micro-Fine), while the animal was under isoflurane anesthesia (2%) for maximum 60 seconds. […] Statistical analysis: was performed using GraphPad Prism 6.0. Student's t-test. Significance level set to p<0.05. […] All mice from a cage were tested at the same time, but not all given the same treatment. On exposure days, mice were weighed and injected s.c. with peptide (30 μmol/kg) or vehicle (10 μL/g) and immediately placed into the designated compartment for 60 min. The test group was exposed to peptide in the least preferred compartment, and vehicle (PBS) in the preferred compartment, whereas the control group was injected with vehicle in both compartments. […] Time spent in the different compartments was measured by Ethovision (Noldus, Wageningen, Netherlands). An additional experiment was run on animals without injury, showing no mPD5-dependent preference change

[4] = pair distance distribution function analysis

With `CCCCCCCCCCCCCC(=O)N(CCOCCOCCC(=O)N[C@@H](Cc1c[nH]cn1)C(=O)N[C@@H](Cc1c[nH]c2ccccc12)C(=O)N[C@@H](CC(C)C)C(=O)N[C@@H](CCCCN)C(=O)N[C@H](C(=O)O)C(C)C)CCOCCOCCC(=O)N[C@@H](Cc1c[nH]cn1)C(=O)N[C@@H](Cc1c[nH]c2ccccc12)C(=O)N[C@@H](CC(C)C)C(=O)N[C@@H](CCCCN)C(=O)N[C@H](C(=O)O)C(C)C` [myr-NPEG4-(HWLKV)2] the “SEC elution compared with unconjugated NPEG4-(HWLKV)2” value [1] was “eluted at lower elution volume”, the “n myr-NPEG4-(HWLKV)2, core shell model” value ([2]; 300 μM) was 19 and the “n myr-NPEG4-(HWLKV)2, core shell model” value ([2]; 400 μM) was 22. The “n myr-NPEG4-(HWLKV)2, core shell model” value ([2]; 1000 μM) was 22, the “n myr-NPEG4-(HWLKV)2, core shell model” value ([2]; 3000 μM) was 21 and the “n myr-NPEG4-(HWLKV)2, core shell model” value ([2]; 5000 μM) was 19. The “number of individual molecules per micelle” value ([2]; core-shell model) was 19-22, the “outer radius of spherical core-shell micelle” value ([2]; core-shell model) was 20-24 Å and the “number of individual molecules per assembly” value [2, 4] was 5-8. The “radius of gyration (Rg) of micellar structures” value [2, 4] was 20-23.6 Å, the “place preference, time in drug-paired compartment vs vehicle-treated controls” value ([3]; CFA-injured mice, s.c. 30 μmol/kg, single exposure) was “spent significantly more time in the myr-NPEG4-(HWLKV)2-paired compartment” and the place preference ([3]; mice without injury (Naïve), s.c. 30 μmol/kg, single exposure) was “no change in preference”. The abuse liability ([3]; mouse, in vivo) was “lack of abuse liability”.

Reference: patent US20230346948A1, “Lipid conjugated peptide inhibitors of PICK1” (University of Copenhagen, priority 2020, published 2023)
